These results are taken from PMC4640066 (Nature Communications, 2015).

For this experiment, the system named is HeLa cells. Nature of the experiment: MT nucleation (regrowth) assay, HeLa cells. The class given is cell-based, human. To be noted: 30 μM, MT regrowth 1 min, EB1 area. The procedure:
HeLa and U2OS cells were cultured in DMEM+GlutaMAX (Gibco) supplemented with 10% fetal bovine serum (FBS), 100 U ml^−1 penicillin, 100 μg ml^−1 streptomycin and 1 mM sodium pyruvate in a humidified atmosphere containing 5% CO2. RPE-1 cells were cultured in DMEM/F-12 (Gibco) supplemented with 10% FBS, 2 mM L-glutamine, 100 U ml^−1 penicillin, 100 μg ml^−1 streptomycin, 1 mM sodium pyruvate containing 10% FBS in a humidified atmosphere containing 5% CO2.
To depolymerize MTs, interphase cells were treated with 10 μM of nocodazole for 3 h, washed with cold medium and incubated on ice for 1 h. Mitotic cells were treated with 10 μM of STLC for 6 h, washed with cold medium and incubated on ice for 1 h. Subsequently, both cells were incubated in medium containing 1% DMSO or 30 μM of gatastatin for 10 min on ice. Cells were then put in warmed medium containing either 1% DMSO or 30 μM of gatastatin and were incubated at 37 °C (interphase cells) or 20 °C (mitotic cells) for 1 min. The cells were immediately fixed with cold MeOH (−20 °C).
After blocking with PBS containing 0.5% bovine serum albumin, cells were incubated with anti-EB1 antibody (1:500 dilution, Abcam, Cat# ab53358), anti-α-tubulin antibody (1:500 dilution, Sigma, Cat# T9026) and anti-pericentrin antibody (1:2,000 dilution, Abcam, Cat# ab4448). […]

In the case of `COc1cc2c(=O)c(-c3cc(OC)c4c(c3OC)OCO4)coc2cc1OCc1ccccc1` [Gatastatin, O^7-demethylbenzyl AG1], the “Effect on MT nucleation activity of interphase and mitotic centrosomes” value is recorded as “inhibited MT nucleation activity”.
